For this assay, the target named is human orexin type 2 receptor (hOX2R) (Homo sapiens (Human), UniProt O43614). The assay is described as follows: Measurement of orexin type 2 receptor agonist activity (Experimental Example 2-1, FLIPR TETRA, intracellular Ca2+).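 On Emax: Buffer-only well is 0% and 10 nM human orexin B is 100%.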 The class given is cell-based. The conditions noted are these: CHO dhfr- cells expressing hOX2R; for EC50: agonist activity, 10 nM human orexin B = 100%; for Emax at 30 µM: value at 30 uM concentration, orexin B as full agonist = 100%. An excerpt:
To obtain a cell clone stably expressing human orexin type 2 receptor, human orexin type 2 receptor cDNA was inserted into pcDNA3.1(+) plasmid vector (Invitrogen), and a plasmid DNA for expression of human orexin type 2 receptor (pcDNA3.1(+)/hOX2R) was cloned. The plasmid DNA was introduced into CHO-dhfr cell by an electroporation method, and human orexin type 2 receptor expressing clone cells were obtained by limiting dilution method by using G418 drug resistance as a selection marker.
Chinese hamster ovary (CHO) dhfr-cells forcibly expressing human orexin type 2 receptor (hOX2R) were seeded in each well of Black clear bottom plate (384 wells) (Becton, Dickinson and Company) by 10,000 cells, and cultured for 16 hr in an MEM-alpha (Nikken-Bio Co., Ltd.) medium containing 100 U/ml penicillin, 100 μg/ml streptomycin, […] G418 (all above Invitrogen), and 10% fetal calf serum (Thermo), under the conditions of 37° C., 5% CO2. […] A test compound was dissolved in dimethyl sulfoxide to 10 mM, and then diluted with assay buffer 2 (20 mM HEPES, Hanks' balanced salt solution (Invitrogen), 0.1% bovine serum albumin). For the reaction, a test compound solution (10 μL) was added using Fluorescent Imaging Plate Reader TETRA (FLIPR TETRA; manufactured by Molecular Devices), a fluorescence value (excitation wavelength 488 nm, measurement wavelength 570 nm) of each well was measured every one second for 1 min, and the agonist activity was determined using the area of the fluorescence value as an indicator of intracellular Ca^2+ concentration.

Structures are written as SMILES.

Chain of human orexin type 2 receptor (hOX2R) (O43614 whole entry): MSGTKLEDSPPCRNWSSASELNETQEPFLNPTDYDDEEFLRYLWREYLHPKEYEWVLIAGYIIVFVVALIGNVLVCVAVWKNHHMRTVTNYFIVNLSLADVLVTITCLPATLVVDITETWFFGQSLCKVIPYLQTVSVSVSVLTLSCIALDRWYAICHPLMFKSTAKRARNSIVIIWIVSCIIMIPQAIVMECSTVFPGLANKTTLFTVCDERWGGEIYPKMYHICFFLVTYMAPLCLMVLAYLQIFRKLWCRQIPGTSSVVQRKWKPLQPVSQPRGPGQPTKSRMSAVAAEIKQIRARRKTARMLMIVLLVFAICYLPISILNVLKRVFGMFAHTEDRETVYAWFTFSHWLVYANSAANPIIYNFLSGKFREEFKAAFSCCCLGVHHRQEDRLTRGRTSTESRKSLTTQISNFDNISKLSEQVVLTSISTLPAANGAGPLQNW

`CCCC(=O)N1CCC[C@H](NS(C)(=O)=O)[C@@H]1CO[C@H]1CC[C@@H](C(C)C)CC1` (relative stereo) [Example 35, N-(cis-1-butyryl-2-(((cis-4-isopropylcyclohexyl)oxy)methyl)piperidin-3-yl)methanesulfonamide] showed an EC50 of 93 nM and an Emax at 30 µM of 99%.
`CC(C)[C@H]1CC[C@@H](OC[C@H]2[C@@H](NS(C)(=O)=O)CCCN2S(C)(=O)=O)CC1` (relative stereo) [Example 36, N-(cis-2-(((cis-4-isopropylcyclohexyl)oxy)methyl)-1-(methylsulfonyl)piperidin-3-yl)methanesulfonamide]: the Emax at 30 µM was 74%.
In turn, `CCS(=O)(=O)N[C@H]1CCCN(C(=O)Nc2ccccc2)[C@H]1CO[C@H]1CC[C@@H](C)CC1` (relative stereo) [Example 37, cis-3-((ethylsulfonyl)amino)-2-(((cis-4-methylcyclohexyl)oxy)methyl)-N-phenylpiperidine-1-carboxamide] registered an EC50 of 880 nM and an Emax at 30 µM of 97%.
`CC(C)[C@H]1CC[C@@H](OC[C@H]2[C@@H](NS(C)(=O)=O)CCCN2C(=O)N2CCCC2)CC1` (relative stereo) [Example 39, N-(cis-2-(((cis-4-isopropylcyclohexyl)oxy)methyl)-1-(pyrrolidin-1-ylcarbonyl)piperidin-3-yl)methanesulfonamide] had an EC50 of 940 nM and an Emax at 30 µM of 93%.
Taken in the same sequence, the figures for `CC(C)[C@H]1CC[C@@H](OC[C@H]2[C@@H](NS(C)(=O)=O)CCCN2C(=O)N(C)C)CC1` (relative stereo) [Example 40, cis-2-(((cis-4-isopropylcyclohexyl)oxy)methyl)-N,N-dimethyl-3-((methylsulfonyl)amino)piperidine-1-carboxamide] were 720 nM and 91%.
For the molecule `CCOC(=O)N1CCC[C@H](NS(C)(=O)=O)[C@@H]1CO[C@H]1CC[C@@H](C(C)C)CC1` (relative stereo) [Example 42, ethyl cis-2-(((cis-4-isopropylcyclohexyl)oxy)methyl)-3-((methylsulfonyl)amino)piperidine-1-carboxylate], the maximum response (Emax) at 30 µM amounted to 97%.
`CC(C)[C@H]1CC[C@@H](OC[C@H]2[C@@H](NS(C)(=O)=O)CCCN2C(=O)Oc2ccccc2)CC1` (relative stereo) [Example 43, phenyl cis-2-(((cis-4-isopropylcyclohexyl)oxy)methyl)-3-((methylsulfonyl)amino)piperidine-1-carboxylate] came in with a half-maximal effective concentration (EC50) of 1100 nM and an Emax at 30 µM of 93%.
Regarding `CC(C)[C@H]1CC[C@@H](OC[C@H]2[C@@H](NS(C)(=O)=O)CCCN2C(=O)COc2ccccc2)CC1` (relative stereo) [Example 44, N-(cis-2-(((cis-4-isopropylcyclohexyl)oxy)methyl)-1-(phenoxyacetyl)piperidin-3-yl)methanesulfonamide], the EC50 turned out to be 1300 nM and the Emax at 30 µM came to 96%.
In the case of `COCC(=O)N1CCC[C@H](NS(C)(=O)=O)[C@@H]1CO[C@H]1CC[C@@H](C(C)C)CC1` (relative stereo) [Example 45, N-(cis-2-(((cis-4-isopropylcyclohexyl)oxy)methyl)-1-(methoxyacetyl)piperidin-3-yl)methanesulfonamide], a half-maximal response (EC50) required 330 nM and the maximal response (Emax) at 30 µM was 100%.
Regarding `CC(=O)OCC(=O)N1CCC[C@H](NS(C)(=O)=O)[C@@H]1CO[C@H]1CC[C@@H](C(C)C)CC1` (relative stereo) [Example 47, 2-(cis-2-(((cis-4-isopropylcyclohexyl)oxy)methyl)-3-((methylsulfonyl)amino)piperidin-1-yl)-2-oxoethyl acetate], the Emax at 30 µM was found to be 101%.
For `CC(C)[C@H]1CC[C@@H](OC[C@H]2[C@@H](NS(C)(=O)=O)CCCN2C(=O)C(C)(C)C)CC1` (relative stereo) [Example 53, N-(cis-1-(2,2-dimethylpropanoyl)-2-(((cis-4-isopropylcyclohexyl)oxy)methyl)piperidin-3-yl)methanesulfonamide], the concentration giving a half-maximal response (EC50) is 980 nM and the Emax at 30 µM was 96%.
Taken in the same sequence, the figures for `CC(C)[C@H]1CC[C@@H](OC[C@H]2[C@@H](NS(C)(=O)=O)CCCN2C(=O)CCc2ccccc2)CC1` (relative stereo) [Example 54, N-(cis-2-(((cis-4-isopropylcyclohexyl)oxy)methyl)-1-(3-phenylpropanoyl)piperidin-3-yl)methanesulfonamide] were 4100 nM and 88%.
For `COC(=O)CCC(=O)N1CCC[C@H](NS(C)(=O)=O)[C@@H]1CO[C@H]1CC[C@@H](C(C)C)CC1` (relative stereo) [Example 55, methyl 4-(cis-2-(((cis-4-isopropylcyclohexyl)oxy)methyl)-3-((methylsulfonyl)amino)piperidin-1-yl)-4-oxobutanoate] the same measures were 140 nM and 97%.
In the case of `CC(C)[C@H]1CC[C@@H](OC[C@H]2[C@@H](NS(C)(=O)=O)CCCN2C(=O)C2CCOCC2)CC1` (relative stereo) [Example 60, N-(cis-2-(((cis-4-isopropylcyclohexyl)oxy)methyl)-1-(tetrahydro-2H-pyran-4-ylcarbonyl)piperidin-3-yl)methanesulfonamide], a half-maximal response (EC50) required 140 nM and the Emax at 30 µM came to 101%.
Taken in the same sequence, the figures for `CC(C)[C@H]1CC[C@@H](OC[C@H]2[C@@H](NS(C)(=O)=O)CCCN2S(=O)(=O)C2CC2)CC1` (relative stereo) [Example 62, N-(cis-1-(cyclopropylsulfonyl)-2-(((cis-4-isopropylcyclohexyl)oxy)methyl)piperidin-3-yl)methanesulfonamide] were 2300 nM and 93%.
Taken in the same sequence, the figures for `Cc1nc(S(=O)(=O)N2CCC[C@H](NS(C)(=O)=O)[C@@H]2CO[C@H]2CC[C@@H](C(C)C)CC2)cn1C` (relative stereo) [Example 65, N-(cis-1-((1,2-dimethyl-1H-imidazol-4-yl)sulfonyl)-2-(((cis-4-isopropylcyclohexyl)oxy)methyl)piperidin-3-yl)methanesulfonamide] were 1300 nM and 95%.
For `CC(C)[C@H]1CC[C@@H](OC[C@H]2[C@@H](NS(C)(=O)=O)CCCN2S(=O)(=O)c2cccnc2)CC1` (relative stereo) [Example 66, N-(cis-2-(((cis-4-isopropylcyclohexyl)oxy)methyl)-1-(pyridin-3-ylsulfonyl)piperidin-3-yl)methanesulfonamide] the same measures were 3800 nM and 87%.
`CC(C)[C@H]1CC[C@@H](OC[C@H]2[C@@H](NS(C)(=O)=O)CCCN2S(=O)(=O)c2cnn(C)c2)CC1` (relative stereo) [Example 67, N-(cis-2-(((cis-4-isopropylcyclohexyl)oxy)methyl)-1-((1-methyl-1H-pyrazol-4-yl)sulfonyl)piperidin-3-yl)methanesulfonamide] registered an Emax at 30 µM of 93%.
As to `CC(C)[C@H]1CC[C@@H](OC[C@H]2[C@@H](NS(C)(=O)=O)CCCN2C(=O)CCO)CC1` (relative stereo) [Example 72, N-(cis-1-(3-hydroxypropanoyl)-2-(((cis-4-isopropylcyclohexyl)oxy)methyl)piperidin-3-yl)methanesulfonamide], the response was half-maximal at 89 nM (EC50) and the maximal effect (Emax) at 30 µM was found to be 96%.
`CC(C)[C@H]1CC[C@@H](OC[C@H]2[C@@H](NS(C)(=O)=O)CCCN2C(=O)CC(C)(C)O)CC1` (relative stereo) [Example 73, N-(cis-1-(3-hydroxy-3-methylbutanoyl)-2-(((cis-4-isopropylcyclohexyl)oxy)methyl)piperidin-3-yl)methanesulfonamide] displayed an EC50 of 560 nM and an Emax at 30 µM of 92%.
For `CC(C)[C@H]1CC[C@@H](OC[C@H]2[C@@H](NS(C)(=O)=O)CCCN2C(=O)CCS(C)(=O)=O)CC1` (relative stereo) [Example 74, N-(cis-2-(((cis-4-isopropylcyclohexyl)oxy)methyl)-1-(3-(methylsulfonyl)-propanoyl)piperidin-3-yl)methanesulfonamide], a half-maximal response (EC50) required 750 nM and the Emax at 30 µM amounted to 89%.
For the molecule `CC(=O)CCC(=O)N1CCC[C@H](NS(C)(=O)=O)[C@@H]1CO[C@H]1CC[C@@H](C(C)C)CC1` (relative stereo) [Example 75, N-(cis-2-(((cis-4-isopropylcyclohexyl)oxy)methyl)-1-(4-oxopentanoyl)piperidin-3-yl)methanesulfonamide], the Emax at 30 µM was found to be 88%.
The molecule `CC(=O)N1CCC[C@H](NS(=O)(=O)C(C)C)[C@@H]1CO[C@H]1CC[C@@H](C(C)C)CC1` (relative stereo) [Example 76, N-(cis-1-acetyl-2-(((cis-4-isopropylcyclohexyl)oxy)methyl)piperidin-3-yl)propane-2-sulfonamide] displayed an EC50 of 300 nM and an Emax at 30 µM of 103%.

The values are drawn from patent publication US10287305B2, “Substituted piperidine compound and use thereof” (Takeda Pharmaceutical Company Limited, priority 2016, dated 2019).
